The results in this text go back to article PMC2248166, “Quantitative peptide binding motifs for 19 human and mouse MHC class I molecules derived using positional scanning combinatorial peptide libraries” (Immunome Research, 2008).

Targets include HLA B*1501 (Homo sapiens, UniProt P01889, A329T/A93T/A95T/C349S/D201E/D98Y/E187L/E204Q/E69M/E70A/K202T/N87E/Q94N/R155S/R180W/S121R/S35A/S48A/V306I/V36M/Y140S/Y91S); HLA A*3001 (Homo sapiens, UniProt P04439, D140H/D185E/E176W/F33S/G80R/H175R/K168Q/R138E/R41S); HLA B*1503 (Homo sapiens, UniProt P01889, A329T/A93T/A95T/C349S/D201E/D98Y/E187L/E204Q/K202T/N87E/Q94N/R155S/R180L/S121R/S35A/V306I/V36M/Y140S/Y91S).

Experiment in all cases: biochemical
Holding throughout (format): binding

Where a SMILES comes first, the peptide text is derived from it.

Chain of HLA A*3001 (P04439 25-365 limits assumed, stated change not applied): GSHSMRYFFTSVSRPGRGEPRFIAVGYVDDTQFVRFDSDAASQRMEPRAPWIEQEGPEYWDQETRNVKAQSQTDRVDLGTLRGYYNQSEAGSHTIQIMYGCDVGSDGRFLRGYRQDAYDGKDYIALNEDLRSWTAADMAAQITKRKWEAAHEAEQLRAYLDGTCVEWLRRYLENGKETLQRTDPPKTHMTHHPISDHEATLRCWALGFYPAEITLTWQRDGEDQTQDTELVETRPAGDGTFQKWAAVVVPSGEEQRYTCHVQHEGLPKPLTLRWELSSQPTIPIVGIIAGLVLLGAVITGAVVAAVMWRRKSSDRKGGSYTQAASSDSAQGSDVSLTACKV

A word on the IC50: it is the concentration at which inhibition is half-maximal. A low value points to inhibition by little substance. Turning to `CC[C@H](C)[C@H](NC(=O)[C@@H](N)CCC(=O)O)C(=O)N[C@@H](C)C(=O)N[C@@H](CCCCN)C(=O)N[C@@H](Cc1ccc(O)cc1)C(=O)NCC(=O)N[C@@H](Cc1c[nH]cn1)C(=O)N[C@@H](CO)C(=O)N[C@@H](Cc1ccccc1)C(=O)O` [3102.0911] (H-EIAKYGHSF-OH), at HLA B*1501, the IC50 came to 58 nM.
Still for that read-out and setting: the result for `CC[C@H](C)[C@H](NC(=O)[C@@H](N)Cc1ccc(O)cc1)C(=O)N[C@@H](CO)C(=O)N[C@@H](CCCCN)C(=O)N[C@H](C(=O)N[C@@H](Cc1ccccc1)C(=O)N[C@@H](CCC(=O)O)C(=O)N[C@@H](Cc1c[nH]cn1)C(=O)N[C@H](C(=O)O)C(C)C)C(C)C` [3102.0810] (H-YISKVFEHV-OH) reads 94 nM.
As for `CC(C)C[C@H](NC(=O)[C@@H](NC(=O)[C@H](CCCCN)NC(=O)[C@H](CCCCN)NC(=O)[C@H](C)NC(=O)[C@@H](N)CC(C)C)[C@@H](C)O)C(=O)N[C@@H](C)C(=O)N1CCC[C@H]1C(=O)N[C@@H](Cc1ccccc1)C(=O)O` [3102.0825] (H-LAKKTLAPF-OH), it took 2.1 nM to reach half-maximal inhibition against HLA B*1501 (IC50).
With `CC(C)C[C@H](NC(=O)[C@H](CO)NC(=O)[C@H](CCC(N)=O)NC(=O)[C@@H](N)Cc1ccc(O)cc1)C(=O)N[C@@H](CO)C(=O)N1CCC[C@H]1C(=O)N1CCC[C@H]1C(=O)N1CCC[C@H]1C(=O)N[C@@H](Cc1ccccc1)C(=O)O` [3102.1242] (H-YQSLSPPPF-OH), the IC50 was found to be 0.5 nM on HLA A*3001 and 0.061 nM on HLA B*1503.
For `CC[C@H](C)[C@H](NC(=O)[C@H](Cc1c[nH]cn1)NC(=O)[C@H](Cc1ccc(O)cc1)NC(=O)[C@H](C)NC(=O)[C@H](CCCCN)NC(=O)[C@@H](N)CCCNC(=N)N)C(=O)N[C@H](C(=O)N[C@@H](Cc1ccccc1)C(=O)N[C@@H](Cc1ccccc1)C(=O)O)[C@@H](C)CC` [3102.1054] (H-RKAYHIIFF-OH) the same measures were 5.4 nM and 0.037 nM.
The compound `C[C@H](NC(=O)[C@H](Cc1ccc(O)cc1)NC(=O)[C@H](CCCNC(=N)N)NC(=O)[C@H](Cc1ccc(O)cc1)NC(=O)[C@@H](NC(=O)[C@@H](N)CCCCN)[C@@H](C)O)C(=O)N[C@@H](Cc1ccccc1)C(=O)N[C@@H](CO)C(=O)N[C@@H](CCCCN)C(=O)O` [3102.0120] (H-KTYRYAFSK-OH) gave an IC50 against HLA A*3001 of 22 nM.
Still for that read-out and setting: then `CC[C@H](C)[C@H](NC(=O)[C@@H](N)CCCNC(=N)N)C(=O)N[C@@H](CCCNC(=N)N)C(=O)N[C@@H](Cc1ccccc1)C(=O)N[C@@H](Cc1ccccc1)C(=O)N[C@@H](Cc1ccc(O)cc1)C(=O)N[C@@H](CCCNC(=N)N)C(=O)N[C@@H](CCCCN)C(=O)N[C@@H](CCCCN)C(=O)O` [3102.0083] (H-RIRFFYRKK-OH), with 0.17 nM; and `CC(C)C[C@H](NC(=O)[C@H](CCC(N)=O)NC(=O)[C@H](Cc1c[nH]cn1)NC(=O)[C@H](CCCCN)NC(=O)[C@H](CO)NC(=O)[C@H](CO)NC(=O)[C@@H](NC(=O)[C@@H](N)CCCCN)C(C)C)C(=O)N[C@H](C(=O)O)C(C)C` [3102.0182] (H-KVSSKHQLV-OH), with 14 nM; and `CC[C@H](C)[C@H](NC(=O)[C@H](CCSC)NC(=O)[C@H](CC(C)C)NC(=O)[C@@H]1CCCN1C(=O)[C@H](CCCNC(=N)N)NC(=O)[C@H](Cc1ccccc1)NC(=O)[C@@H](N)CCCCN)C(=O)N[C@@H](Cc1ccccc1)C(=O)N[C@@H](CCSC)C(=O)O` [3102.0084] (H-KFRPLMIFM-OH), with 1.8 nM.
On the same count and under the same terms, the result for `N=C(N)NCCC[C@H](NC(=O)CNC(=O)[C@@H](N)CCCCN)C(=O)N[C@@H](CCCNC(=N)N)C(=O)N[C@@H](CCC(N)=O)C(=O)N[C@@H](Cc1ccc(O)cc1)C(=O)N[C@@H](Cc1ccccc1)C(=O)N[C@@H](Cc1ccc(O)cc1)C(=O)NCC(=O)O` [3102.0035] (H-KGRRQYFYG-OH) reads 2.9 nM; that for `CC(C)[C@H](NC(=O)[C@H](Cc1ccc(O)cc1)NC(=O)[C@H](CO)NC(=O)[C@H](Cc1ccc(O)cc1)NC(=O)[C@@H](NC(=O)[C@@H]1CCCN1C(=O)[C@H](CCCCN)NC(=O)[C@H](Cc1ccc(O)cc1)NC(=O)[C@@H](N)CCCCN)C(C)C)C(=O)O` [3102.0143] (H-KYKPVYSYV-OH), 0.74 nM.
At HLA A*3001, `CSCC[C@H](NC(=O)[C@H](CCCNC(=N)N)NC(=O)[C@H](Cc1ccc(O)cc1)NC(=O)[C@@H](N)CCCNC(=N)N)C(=O)N[C@@H](Cc1c[nH]cn1)C(=O)N1CCC[C@H]1C(=O)N[C@@H](CCSC)C(=O)N[C@@H](CO)C(=O)N[C@@H](CCCCN)C(=O)O` [3102.0268] (H-RYRMHPMSK-OH) gave an IC50 of 0.068 nM.
Same read-out and setting: the result for `CC[C@H](C)[C@H](NC(=O)[C@H](CCCCN)NC(=O)[C@@H](NC(=O)[C@H](CO)NC(=O)[C@H](CCC(N)=O)NC(=O)[C@H](CC(=O)O)NC(=O)[C@H](CCCNC(=N)N)NC(=O)[C@H](CC(C)C)NC(=O)[C@@H](N)Cc1c[nH]cn1)[C@@H](C)CC)C(=O)O` [3102.0041] (H-HLRDQSIKI-OH) reads 15 nM.
On the same count and under the same terms, then `CC(C)[C@H](NC(=O)[C@H](CCC(N)=O)NC(=O)[C@@H](NC(=O)[C@H](CCCNC(=N)N)NC(=O)[C@H](CCC(=O)O)NC(=O)[C@@H](NC(=O)[C@H](CCCNC(=N)N)NC(=O)[C@H](CO)NC(=O)[C@@H](N)CCCCN)C(C)C)C(C)C)C(=O)O` [3102.0075] (H-KSRVERVQV-OH), with 11 nM; and `CC(C)C[C@H](NC(=O)[C@H](CO)NC(=O)[C@H](Cc1c[nH]cn1)NC(=O)[C@H](CC(C)C)NC(=O)[C@H](CCCNC(=N)N)NC(=O)[C@H](C)NC(=O)[C@H](CO)NC(=O)[C@@H](NC(=O)[C@@H](N)Cc1c[nH]cn1)[C@@H](C)O)C(=O)O` [3102.0250] (H-HTSARLHSL-OH), with 4.1 nM.
Compound `CSCC[C@H](N)C(=O)N[C@@H](CO)C(=O)N[C@@H](CCCNC(=N)N)C(=O)N[C@@H](CCCNC(=N)N)C(=O)N[C@@H](Cc1ccc(O)cc1)C(=O)N[C@@H](CO)C(=O)N[C@@H](CCCNC(=N)N)C(=O)N[C@@H](CCC(=O)O)C(=O)N[C@@H](CCCCN)C(=O)O` [3102.0203] (H-MSRRYSREK-OH) returned a concentration for half-maximal inhibition (IC50) on HLA A*3001 of 1.3 nM.
Same read-out and setting: then `CC(C)C[C@H](NC(=O)[C@H](CCCCN)NC(=O)[C@H](CCCCN)NC(=O)[C@@H](NC(=O)[C@@H](N)CCCCN)C(C)C)C(=O)N[C@@H](CC(N)=O)C(=O)N[C@@H](CCCNC(=N)N)C(=O)N[C@@H](CS)C(=O)N[C@@H](C)C(=O)O` [3102.0262] (H-KVKKLNRCA-OH), with 3.1 nM; and `CSCC[C@H](N)C(=O)N[C@@H](CC(C)C)C(=O)N[C@@H](CCCNC(=N)N)C(=O)N[C@H](C(=O)N[C@H](C(=O)N[C@@H](Cc1ccc(O)cc1)C(=O)N[C@@H](CS)C(=O)N[C@@H](CC(N)=O)C(=O)N[C@@H](CCCCN)C(=O)O)C(C)C)[C@@H](C)O` [3102.0024] (H-MLRTVYCNK-OH), with 0.26 nM.
The same measure, in the same setting: the result for `CC[C@H](C)[C@H](NC(=O)[C@@H](NC(=O)[C@@H](N)CCCCN)[C@@H](C)O)C(=O)N[C@@H](Cc1c[nH]c2ccccc12)C(=O)N[C@@H](CCC(=O)O)C(=O)N[C@H](C(=O)N1CCC[C@H]1C(=O)N[C@@H](CCC(N)=O)C(=O)N[C@@H](CCCCN)C(=O)O)[C@@H](C)CC` [3102.0190] (H-KTIWEIPQK-OH) reads 12 nM; that for `CC[C@H](C)[C@H](NC(=O)[C@H](Cc1ccccc1)NC(=O)[C@H](CC(C)C)NC(=O)[C@H](CC(=O)O)NC(=O)[C@H](CCCNC(=N)N)NC(=O)[C@@H](NC(=O)[C@@H](N)CCCNC(=N)N)[C@@H](C)O)C(=O)N[C@@H](C)C(=O)N[C@@H](CC(C)C)C(=O)O` [3102.0188] (H-RTRDLFIAL-OH), 0.11 nM.
For the compound `CC(C)C[C@H](NC(=O)[C@H](CCCNC(=N)N)NC(=O)[C@@H](NC(=O)[C@@H](N)CCCNC(=N)N)C(C)C)C(=O)N[C@@H](CCCNC(=N)N)C(=O)N[C@@H](Cc1ccc(O)cc1)C(=O)N[C@@H](CCCNC(=N)N)C(=O)N[C@@H](CO)C(=O)NCC(=O)O` [3102.0082] (H-RVRLRYRSG-OH), half-maximal inhibition on HLA A*3001 (IC50) required 13 nM.
Same read-out and setting: the result for `CC[C@H](C)[C@H](NC(=O)[C@H](CCCCN)NC(=O)[C@@H](NC(=O)CN)[C@@H](C)O)C(=O)N[C@@H](C)C(=O)N[C@@H](CC(C)C)C(=O)N[C@@H](CC(C)C)C(=O)N[C@@H](CCC(=O)O)C(=O)N[C@@H](CC(C)C)C(=O)O` [3102.0200] (H-GTKIALLEL-OH) reads 1.3 nM; that for `CC[C@H](C)[C@H](NC(=O)[C@@H](N)CCCNC(=N)N)C(=O)N[C@@H](CCCNC(=N)N)C(=O)N[C@@H](CCC(N)=O)C(=O)N[C@@H](CCC(N)=O)C(=O)N[C@@H](CC(C)C)C(=O)N1CCC[C@H]1C(=O)N[C@@H](CC(C)C)C(=O)N[C@@H](Cc1ccc(O)cc1)C(=O)O` [3102.0107] (H-RIRQQLPLY-OH), 13 nM.
Same read-out and setting: then `CC(C)C[C@H](NC(=O)[C@@H](N)CCCCN)C(=O)N[C@@H](CCCNC(=N)N)C(=O)N[C@@H](CS)C(=O)N[C@@H](CCCNC(=N)N)C(=O)N[C@@H](CC(N)=O)C(=O)N[C@H](C(=O)N[C@@H](CCC(=O)O)C(=O)N[C@@H](C)C(=O)O)[C@@H](C)O` [3102.0105] (H-KLRCRNTEA-OH), with 14 nM; and `CC(C)C[C@H](NC(=O)[C@H](Cc1ccccc1)NC(=O)[C@H](CO)NC(=O)[C@H](CCCCN)NC(=O)[C@H](CC(C)C)NC(=O)[C@H](CCC(N)=O)NC(=O)[C@H](CCCCN)NC(=O)[C@H](CO)NC(=O)[C@@H](N)CCCCN)C(=O)O` [3102.0146] (H-KSKQLKSFL-OH), with 13 nM.
Still for that read-out and setting: the result for `CC[C@H](C)[C@H](NC(=O)[C@H](CCC(N)=O)NC(=O)[C@@H](NC(=O)[C@@H](NC(=O)[C@H](C)NC(=O)[C@H](CCCCN)NC(=O)[C@@H](NC(=O)[C@@H](N)[C@@H](C)O)[C@@H](C)O)[C@@H](C)O)[C@@H](C)O)C(=O)N[C@@H](C)C(=O)O` [3102.0270] (H-TTKATTQIA-OH) reads 6.5 nM; that for `CSCC[C@H](NC(=O)[C@H](CO)NC(=O)[C@H](CCCNC(=N)N)NC(=O)[C@@H]1CCCN1C(=O)[C@H](Cc1ccccc1)NC(=O)[C@H](CCCCN)NC(=O)[C@H](CO)NC(=O)[C@@H](N)CCCCN)C(=O)N[C@@H](CC(C)C)C(=O)O` [3102.0022] (H-KSKFPRSML-OH), 31 nM.
